Laboratory results published in patent US12698289B2, “Solid forms of pharmaceutically acceptable salts of (S)-(2-ethyl-5-fluoro-4-hydroxyphenyl)-1H-indazol-3-yl)-4,6-dihydropyrrolo[3,4-d]imidazol-5(1H)-yl)(3-hydroxypyrrolidin-1-yl)methanone as JAK inhibitors” (HENAN MEDINNO PHARMACEUTICAL TECHNOLOGY CO., LTD., priority 2019, dated 2026).

Tested on: human T cells
Assay: IL-2 induced human T cell proliferation assay (Celltiter Glo)
Details: HT, 72 h, read-out: IC50 (nM), human T cell proliferation
Excerpt: The purpose of this example is to assay the activity of the compound in the JAK cell activity assay-human T cell proliferation assay.

## CCc1cc(O)c(F)cc1-c1ccc2c(-c3nc4c([nH]3)CN(C(=O)N3CC[C@H](O)C3)C4)n[nH]c2c1 [Compound of formula (I), (S)-(2-(6-(2-ethyl-5-fluoro-4-hydroxyphenyl)-1H-indazol-3-yl)-4,6-dihydropyrrolo[3,4-d]imidazol-5-(1H)-yl) (3-hydroxy pyrrolidin-1-yl) ketone]
  IC50: 13 nM
